Structures are written as SMILES.

The first assay relates to exon 4 skipped transcripts of ATXN3. The assay is described as follows: ATXN3 Quantitative Splicing Assay. The assay is classed as cell-based. To be noted: Human neuroblastoma SK-N-MC cells, treated 24 h, qPCR; read-out: ATXN 3 E4 Skipping EC50. How it is done:
Human neuroblastoma SK-N-MC cells were plated in 384-well plates at 20,000 cells/well. Twenty-four hours after plating, cells were treated with compounds for 24 h at appropriate concentrations ranging from 30 µM to 0.6 nM (0.3% DMSO). Treated cells were lysed in 15 μL of lysis buffer, and cDNA was synthesized using the Fast Advanced Cells-to-Ct kit. Two μL of each cDNA was used in qPCR reactions to confirm the exon 4 skipped transcripts of ATXN3. A second set of primers/probe E4E5 was used to detect the transcripts containing exon 4. The third set of primers/probe E8E9 was used to detect total gene level of ATXN3. The qPCR reactions were prepared in 384-well plates in 10 μL volume, using TaqMan™ Fast Advanced Master Mix with primers and probes shown in the table below. Reactions were run in a Quant Studio 6 qPCR instrument with default settings.
The primers and probes are listed below in Table 3.
Regarding `Cc1csc2c(NCc3cccs3)nnnc12` [Compound 1, 7-methyl-N-(thiophen-2-ylmethyl)thieno[3,2-d][1,2,3]triazin-4-amine], the EC50 – broadly, the midpoint of the concentration-response curve – was ≥ 10 µM.
On the same count and under the same terms, then `Cc1c(C[C@H](C)N)sc2c(NCc3cccs3)nnnc12` [Compound 2, (S)-6-(2-aminopropyl)-7-methyl-N-(thiophen-2-ylmethyl)thieno[3,2-d][1,2,3]triazin-4-amine], with 0.501 to 5 µM; and `Cc1csc2c(NCc3ccco3)nnnc12` [Compound 3, N-(furan-2-ylmethyl)-7-methylthieno[3,2-d][1,2,3]triazin-4-amine], with ≥ 10 µM.
Same read-out and setting: then `Cc1c(C[C@H](C)N)sc2c(NCc3ccco3)nnnc12` [Compound 4, (S)-6-(2-aminopropyl)-N-(furan-2-ylmethyl)-7-methylthieno[3,2-d][1,2,3]triazin-4-amine], with ≥ 10 µM.

The test system of another assay is total ATXN3 protein. The assay is described as follows: ATXN3 Total Protein Assay. The assay is classed as cell-based. To be noted: Human neuroblastoma SK-N-MC cells, incubation 48 hours, MSD assay; read-out: ATXN3 Protein Potency IC50. How it is done:
Human neuroblastoma SK-N-MC cells were seeded at 10,000 cells/well in 384 well plates one day prior to compound treatment. The concentrations of compounds were tested at appropriate doses ranging from 30 μM to 0.6 nM. After incubation for 48 hours, the cells were lysed with 25 μL of lysis buffer containing protease inhibitors, and total ATXN3 protein levels were assessed by Mesoscale Discovery (MSD) assay developed with one pair of anti-ATXN3 antibodies. The capture and detect antibodies were raised in mouse and rabbit respectively. Anti-rabbit MSD-ST antibody was used for secondary antibody.
ATXN3 recombinant protein was used for standards. The readouts were captured with 35 μL of MSD read buffer and multi-array 384-well high binding plates.
Take `Cc1csc2c(NCc3cccs3)nnnc12` [Compound 1, 7-methyl-N-(thiophen-2-ylmethyl)thieno[3,2-d][1,2,3]triazin-4-amine]: the half-maximal inhibitory concentration (IC50) – broadly, the concentration that inhibits the measured activity by half – was ≥ 10 µM.
The same measure, in the same setting: the result for `Cc1c(C[C@H](C)N)sc2c(NCc3cccs3)nnnc12` [Compound 2, (S)-6-(2-aminopropyl)-7-methyl-N-(thiophen-2-ylmethyl)thieno[3,2-d][1,2,3]triazin-4-amine] reads 0.501 to 5 µM; that for `Cc1csc2c(NCc3ccco3)nnnc12` [Compound 3, N-(furan-2-ylmethyl)-7-methylthieno[3,2-d][1,2,3]triazin-4-amine], ≥ 10 µM.
In the case of `Cc1c(C[C@H](C)N)sc2c(NCc3ccco3)nnnc12` [Compound 4, (S)-6-(2-aminopropyl)-N-(furan-2-ylmethyl)-7-methylthieno[3,2-d][1,2,3]triazin-4-amine], the IC50 lay within 0.501 to 5 µM.

The record behind these values is US20250129090A1, “COMPOSITIONS USEFUL FOR MODULATING SPLICING” (SKYHAWK THERAPEUTICS, INC., priority 2021, published 2025).
